Experimental findings from PubChem BioAssay (NCI) are described below.

Test systems include SK-OV-3 ovarian; KM20L2 colon; SNB-75 CNS; M19-MEL melanoma; SNB-78 CNS; M14 melanoma; DMS 273 small cell lung; HOP-18 NSCLC; LXFL 529 NSCLC; DMS 114 small cell lung; K-562 leukemia; ACHN renal; DLD-1 colon; OVCAR-8 ovarian; KM12 colon; XF 498 CNS; HS 578T breast; DU-145 prostate.
Holding throughout (assay): NCI tumour cell line growth inhibition, 48 h

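Grown in 96-well plates, cells were treated for 48 hours with each compound at five concentrations. Insufficient inhibition: endpoint recorded as highest concentration tested. At the GI50, growth is halved. TGI is the concentration that stops growth completely.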 A value given as a limit tells only on which side of the number the result lay.

For the molecule `COc1ccc(C(C#N)NNc2nc(C)cc(=O)[nH]2)cc1OC` (stereo not drawn), the TGI in the assay with SK-OV-3 ovarian, with KM20L2 colon, in the assay on SNB-75 CNS, in the assay with M19-MEL melanoma, in the assay with SNB-78 CNS and in the assay with M14 melanoma was over 100 µM in each case. In addition, the TGI in the assay on DMS 273 small cell lung, with HOP-18 NSCLC, with LXFL 529 NSCLC, in the assay with DMS 114 small cell lung, in the assay with K-562 leukemia and in the assay on ACHN renal was over 100 µM in each case. Moreover, the TGI with DLD-1 colon, in the assay on OVCAR-8 ovarian and with KM12 colon was over 100 µM in each case.
For `CN=S(=O)(c1ccccc1)c1ccccc1`, the TGI in the assay on SK-OV-3 ovarian, in the assay with KM20L2 colon, in the assay with SNB-75 CNS, in the assay with M19-MEL melanoma, in the assay on SNB-78 CNS and in the assay with M14 melanoma was over 100 µM throughout. Further, the TGI with DMS 273 small cell lung, in the assay with XF 498 CNS, with HOP-18 NSCLC, in the assay on DMS 114 small cell lung, in the assay on K-562 leukemia and in the assay on ACHN renal was over 100 µM throughout. Further, the TGI in the assay on DLD-1 colon, in the assay on OVCAR-8 ovarian and in the assay with KM12 colon was over 100 µM throughout.
For `COC(=O)C1C2C=CC(C2)N1[C@@H](C)c1ccccc1` (stereo partly drawn), the TGI in the assay on SK-OV-3 ovarian, in the assay with KM20L2 colon, with SNB-75 CNS, in the assay with M19-MEL melanoma, with SNB-78 CNS and with M14 melanoma was over 100 µM throughout. Moreover, the TGI in the assay on DMS 273 small cell lung, with HOP-18 NSCLC, with LXFL 529 NSCLC, in the assay with K-562 leukemia, in the assay on ACHN renal and in the assay on DLD-1 colon was over 100 µM in each case. For the same molecule, the TGI in the assay on OVCAR-8 ovarian and with KM12 colon was over 100 µM in each case.
`CC(=O)OC1c2ccccc2CCCCCCC12OCCO2` (stereo not drawn): the TGI with SK-OV-3 ovarian, with KM20L2 colon, in the assay with SNB-75 CNS, with SNB-78 CNS, in the assay on M14 melanoma and with HOP-18 NSCLC was over 100 µM in each case. Moreover, the TGI in the assay on DMS 114 small cell lung, in the assay on K-562 leukemia, in the assay with ACHN renal, in the assay with DLD-1 colon, with OVCAR-8 ovarian and with KM12 colon was over 100 µM in each case.
As to `CC(=O)NC1=C(C)C(=O)c2c(nc3n2CCC3O)C1=N` (stereo not drawn), the TGI in the assay on SK-OV-3 ovarian was found to be 97.1 µM; with KM20L2 colon, 36.9 µM; in the assay with SNB-75 CNS, 49.1 µM; in the assay on M19-MEL melanoma, 4.94 µM; in the assay with SNB-78 CNS, 8.56 µM; in the assay on DMS 273 small cell lung, 33.2 µM. Also, the TGI in the assay with XF 498 CNS was 9.04 µM; with HOP-18 NSCLC, 31.8 µM; in the assay on DMS 114 small cell lung, 13.4 µM; in the assay on K-562 leukemia, over 100 µM; in the assay on ACHN renal, 37.7 µM; in the assay with DLD-1 colon it was 25.1 µM. Besides, the TGI in the assay with OVCAR-8 ovarian stood at 16.7 µM; with KM12 colon, 34.3 µM.
On to `NC(=O)N1N=C2c3ccccc3SC[C@H]2[C@@H]1c1ccccc1`, for which the TGI in the assay with KM20L2 colon was 39.8 µM; with M19-MEL melanoma, over 100 µM; in the assay on SNB-78 CNS, 93.3 µM; with XF 498 CNS it was 56.8 µM; in the assay on LXFL 529 NSCLC, 94.2 µM; in the assay on DMS 114 small cell lung, 79.9 µM. The TGI is over 100 µM with K-562 leukemia, over 100 µM in the assay on ACHN renal, 91 µM with DLD-1 colon and 65.9 µM in the assay on OVCAR-8 ovarian.
Consider `COc1cc(CNc2ccc(C(C)C)cc2)cc(OC)c1OC`, for which the TGI with SK-OV-3 ovarian was 46.2 µM; in the assay with KM20L2 colon, 38.8 µM; with SNB-75 CNS, 70.5 µM; in the assay with M19-MEL melanoma it was 39 µM; in the assay with SNB-78 CNS, over 100 µM; in the assay on DMS 273 small cell lung it was 26.3 µM. Also, the TGI with XF 498 CNS came out at 59 µM; with HOP-18 NSCLC, 74.1 µM; in the assay with LXFL 529 NSCLC, 48.7 µM; in the assay on DMS 114 small cell lung, 48.7 µM; with K-562 leukemia, 41.7 µM; with ACHN renal, 60.1 µM. The results for the TGI in the assay on DLD-1 colon, in the assay with OVCAR-8 ovarian and in the assay on KM12 colon were 48.8 µM, 73.4 µM and 34.9 µM, respectively. In the assay with DMS 273 small cell lung, the GI50 was 13 µM.
`O=C(CSC(=S)N1CCOCC1)Nc1nc2c(s1)CCCC2`: the TGI in the assay with SK-OV-3 ovarian, with KM20L2 colon, with SNB-75 CNS, in the assay with M19-MEL melanoma, in the assay with SNB-78 CNS and in the assay on M14 melanoma was over 100 µM throughout. The TGI with DMS 273 small cell lung, with XF 498 CNS, in the assay on LXFL 529 NSCLC, with DMS 114 small cell lung, in the assay with ACHN renal and with DLD-1 colon was over 100 µM in each case. Besides, the TGI in the assay on OVCAR-8 ovarian and with KM12 colon was over 100 µM throughout.
As to `CC(C)C1CC(O)O[C@@H]([C@@H](C)[C@H]2CC(=O)[C@@H]3[C@@H]4[C@@H](O)[C@H](O)[C@H]5[C@@H](O)[C@H](O)CC[C@]5(C)[C@H]4CC[C@]23C)C1` (stereo partly drawn), the TGI in the assay with SK-OV-3 ovarian is over 100 µM; in the assay with KM20L2 colon, over 100 µM; with SNB-75 CNS, 54.3 µM; in the assay with M19-MEL melanoma, over 100 µM; in the assay on SNB-78 CNS it was over 100 µM; in the assay with M14 melanoma, over 100 µM. The TGI was over 100 µM in the assay on DMS 273 small cell lung; 56 µM in the assay on XF 498 CNS; over 100 µM with LXFL 529 NSCLC; over 100 µM in the assay on K-562 leukemia; 62.1 µM in the assay with ACHN renal; over 100 µM in the assay with DLD-1 colon. The TGI with OVCAR-8 ovarian and in the assay with KM12 colon was over 100 µM throughout.
With `CCC(CC)n1c(C)nc2c1C(=O)c1ccccc1C2=O`, the TGI in the assay on SK-OV-3 ovarian was over 100 µM; with KM20L2 colon, over 100 µM; with SNB-75 CNS, over 100 µM; in the assay on M19-MEL melanoma, 33.4 µM; in the assay on SNB-78 CNS, over 100 µM; in the assay with M14 melanoma it was over 100 µM. For the same molecule, the TGI in the assay with DMS 273 small cell lung, in the assay on LXFL 529 NSCLC, with K-562 leukemia, with ACHN renal, with DLD-1 colon and in the assay with OVCAR-8 ovarian was over 100 µM each time. Further, the TGI in the assay on KM12 colon is over 100 µM.
On to `O=C1CCCCc2cccc(O)c21`, for which the TGI with SK-OV-3 ovarian, in the assay on HS 578T breast, with SNB-75 CNS, in the assay with M14 melanoma, in the assay with DU-145 prostate and with K-562 leukemia was over 100 µM throughout. For the same molecule, the TGI in the assay on ACHN renal, in the assay with OVCAR-8 ovarian and in the assay on KM12 colon was over 100 µM in each case.
Turning to `C(=C\C(SCc1ccccc1)SCc1ccccc1)/c1ccccc1`, the TGI with SK-OV-3 ovarian, with HS 578T breast, with SNB-75 CNS, in the assay on M14 melanoma, with DU-145 prostate and in the assay on K-562 leukemia was over 10 µM in each case. The TGI in the assay with ACHN renal, with OVCAR-8 ovarian and in the assay with KM12 colon was over 10 µM each time.
Consider `COc1ccc(C2S/C(=C\c3ccc(O)cc3)C(=O)N2NC(=O)Cc2ccccc2)cc1` (stereo not drawn), for which the TGI in the assay with SK-OV-3 ovarian, with SNB-75 CNS, with M19-MEL melanoma, in the assay with M14 melanoma, with DMS 273 small cell lung and with HOP-18 NSCLC was over 100 µM each time. For the same molecule, the TGI in the assay on LXFL 529 NSCLC, in the assay on DMS 114 small cell lung, in the assay on K-562 leukemia, in the assay with ACHN renal, in the assay with DLD-1 colon and with OVCAR-8 ovarian was over 100 µM each time. Further, in the assay with KM12 colon, the TGI was over 100 µM.
Consider `Cc1ccc(Nc2cc(=O)[nH]c(=S)[nH]2)cc1`, for which the TGI in the assay with SK-OV-3 ovarian, in the assay with HS 578T breast, in the assay with SNB-75 CNS, with M14 melanoma, with DU-145 prostate and in the assay with K-562 leukemia was over 100 µM each time. The TGI with ACHN renal, in the assay on OVCAR-8 ovarian and in the assay with KM12 colon was over 100 µM each time.
`CNC(=S)N/N=C/c1cccc(C)n1`: the TGI in the assay on SK-OV-3 ovarian was over 100 µM; with HS 578T breast it was over 100 µM; with SNB-75 CNS, 90.9 µM; in the assay with M14 melanoma, 47.8 µM; in the assay on DU-145 prostate, over 83.2 µM; in the assay with K-562 leukemia it was over 100 µM. Further, the TGI was over 96.5 µM in the assay with ACHN renal, over 75.7 µM with OVCAR-8 ovarian and over 100 µM in the assay on KM12 colon.
Take `CN(C)c1ccc(/C=C/C=C(/C#N)c2ccccc2)cc1`: the TGI in the assay on SK-OV-3 ovarian was over 74.9 µM; with HS 578T breast it was 69.2 µM; in the assay with SNB-75 CNS, 76 µM; in the assay with M14 melanoma, over 85.1 µM; in the assay with DU-145 prostate, over 100 µM; with K-562 leukemia it was over 38 µM. The figures for the TGI with ACHN renal, in the assay with OVCAR-8 ovarian and in the assay with KM12 colon were over 100 µM, over 91.9 µM and 34.1 µM, respectively.
Take `COC(=O)/N=[N+](\[O-])C(c1ccc(OC)cc1)C1CCCCC1` (stereo not drawn): the TGI came to 18.2 µM in the assay on SK-OV-3 ovarian; 40.7 µM in the assay with HS 578T breast; 20.8 µM in the assay with SNB-75 CNS; 13.1 µM in the assay with M14 melanoma; 10.8 µM in the assay on DU-145 prostate; 44.8 µM with K-562 leukemia. Also, the TGI in the assay on ACHN renal was found to be 16.3 µM; in the assay on OVCAR-8 ovarian, 38.3 µM; in the assay with KM12 colon, 16.7 µM.
As for `Cc1cccc(NC(=S)N=Nc2c(O)[nH]c3ccccc23)c1`, the TGI is over 100 µM in the assay with SK-OV-3 ovarian; over 100 µM with HS 578T breast; over 100 µM with SNB-75 CNS; over 100 µM with M14 melanoma; 70.6 µM with DU-145 prostate; over 100 µM in the assay with K-562 leukemia. In addition, the TGI with ACHN renal, in the assay with OVCAR-8 ovarian and in the assay with KM12 colon was over 100 µM each time.
